Measurements: EP0313094A2, “Anticancer agent and reagent for obtaining revertants” (MEIJI SEIKA KAISHA LTD., priority 1987, dated 1989)
“Also recorded” adds a separate entry of the source.

Experiments:
Type in all cases: cell-based
[1] = tested on: SRY1 cells which had been obtained by cancerizing rat fibroblast 3Y1 cells through transfection with an src oncogene; assay: Growth inhibition of SRY1 cells; conditions: src-transfected rat fibroblast 3Y1 cells; Example 2
[2] = tested on: NIH3T3 cells transformed by an activated melanoma c-H-ras oncogene; assay: Growth inhibition of transformed NIH3T3 cells (cell counting); conditions: 500 µg/mℓ SF-1346, 37°C, Dulbecco-modified Eagle's medium, 5% bovine serum, initial 1 × 10⁴ cell/mℓ
Experimental: (§1) NIH3T3 cells transformed by an activated melanoma c-H-ras oncogene and normal NIH3T3 cells were incubated at 37°C each in a Dulbecco-modified Eagle's medium containing 5% (v/v) of bovine serum.
(§2) Each medium was adjusted to have an initial cell density of 1 × 10⁴ cell/mℓ and contain SF-1346 at a concentration of 200 µg/mℓ or 500 µg/mℓ. The cells therein were counted with the lapse of time from the first day to the fifth day and from the fourth day to the seventh day of the incubation.

[3] = tested on: PSN-1 cells derived from human pancreatic cancer; assay: Inhibition of the growth of PSN-1 cells and acquirement of revertants
Experimental: PSN-1 cells were incubated at 37°C in RPMI 1640 media each containing 10% (v/v) fetal calf serum and SF-1346 at a concentration of 500 µg/mℓ or 200 µg/mℓ. An initial cell density was adjusted to 1 × 10⁴ cells/mℓ. The cells were counted with the lapse of time from the fourth day to the eighth day after the initiation of the incubation.

normal NIH3T3 cells [4] = assay: Morphology of normal NIH3T3 cells incubated with the compound; conditions: 500 µg/mℓ; sixth day of incubation
Experimental: (§3) Cell incubation was carried out under the same conditions as those described in Example 1 except that SF-1346 was added to the culture medium so as to give a final concentration of 500 µg/mℓ. […] Namely, these surviving revertants formed flat foci.

transformed NIH3T3 cells = assay: Acquirement of revertants from transformed NIH3T3 cells (morphology, inverted microscope); conditions: 500 µg/mℓ; sixth day of incubation; inverted microscope 100 × magnification
Experimental: as §3
Then, the revertants were isolated by selecting cell clusters forming flat foci by […]. After repeating this procedure several times, the desired revertants were isolated.

normal NIH3T3 cells [5] = assay: Growth inhibition of normal NIH3T3 cells (cell counting); conditions: 500 µg/mℓ SF-1346; same culture conditions
Experimental: as §1, §2
(§4) SF-1346 were added to the culture medium of NIH3T3 cells transformed with activated c-Ki-ras, N-ras, ret, hst and raf oncogenes in the same manner as in Example 1 so as to give a final concentration of 500 µg/mℓ.

[6] = tested on: NIH3T3 cells transformed with activated c-Ki-ras, N-ras, ret, hst and raf oncogenes; assay: Growth inhibition of NIH3T3 cells transformed with other oncogenes; conditions: final concentration 500 µg/mℓ
Experimental: as §4

SMILES: N[C@@H](Cc1ccc(O)cn1)C(=O)O [SF-1346, L-β-(5-hydroxy-2-pyridyl)alanine]
- growth of SRY1 cells [1]: completely inhibited the growth
- growth of the transformed NIH3T3 cells [2]: inhibit the growth; also recorded: selectively inhibits the growth
- cells converted into flat revertants ([3]; 200 µg/mℓ, PSN-1 cells): 85%
- cells killed ([3]; 200 µg/mℓ, PSN-1 cells): 15%
- growth of the cancer cells ([3]; 200 µg/mℓ, PSN-1 cells): completely inhibiting the growth
- killing of PSN-1 cells ([3]; 500 µg/mℓ, RPMI 1640, 10% fetal calf serum, counted fourth to eighth day): completely killed
- morphological change of normal cells (normal NIH3T3 cells [4]): no morphological change was observed
- morphological observation of transformed cells (revertant formation) (transformed NIH3T3 cells): the transformed cells partially died and the selectively surviving cells were morphologically similar to the normal NIH3T3 cells
- growth of the normal NIH3T3 cells (normal NIH3T3 cells [5]): did not inhibit; also recorded: does not inhibit the growth
- growth of the transformed NIH3T3 cells [6]: inhibited the growth
